Source: the supplement of paper PMC10331698
± gives the standard deviation of the averaged measurements.

What was measured:
Assay in all cases: level (log10 ratio to DMSO vehicle control); higher = higher biomarker level / cell amount than vehicle control
Conditions in all cases: in DMSO
[1] = compound: O=C(O)C(F)(F)C(F)(F)C(F)(F)C(F)(F)C(F)(F)C(F)(F)C(F)(F)C(F)(F)C(F)(F)F [Perfluorodecanoic acid]
Protocol: (§1)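 BioMAP Diversity Plus panel of 12 human primary cell co-culture systems (3C, 4H, LPS, SAg, BT, BF4T, BE3C, CASM3C, HDF3CGF, KF3CT, MyoF, Mphg). Compounds were added 1 h before stimulation and left for 24 h (MyoF 48 h; BT 72 h for soluble read-outs or 6 d for IgG). Biomarkers were read by ELISA, cytotoxicity by SRB, PBMC viability and proliferation by Alamar Blue. Each well value was divided by the mean of 8 DMSO control wells on the same plate and log10 transformed; duplicate blinded samples were tested at 4 concentrations.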

[2] = compound: O=C(O)C(F)(F)C(F)(F)C(F)F [4H-Perfluorobutanoic acid]
Protocol: as §1

[3] = compound: NC(=O)C(F)(F)C(F)(F)F [Pentafluoropropionamide]
Protocol: as §1

[4] = compound: O=C(O)C(F)(F)C(F)(F)F [Perfluoropropanoic acid]
Protocol: as §1

[5] = compound: O=S(=O)(O)C(F)(F)C(F)(F)C(F)(F)C(F)(F)C(F)(F)C(F)(F)F [Perfluorohexanesulfonic acid]
Protocol: as §1

[6] = compound: FC(F)(F)C(F)(F)C(F)(F)C(F)(F)C(F)(F)C(F)(F)C(F)(F)C(F)(F)CCS [2-(Perfluorooctyl)ethanthiol]
Protocol: as §1

[7] = compound: O=C(O)C(F)(F)C(F)(F)C(F)(F)C(F)(F)C(F)(F)C(F)(F)F [Perfluoroheptanoic acid]
Protocol: as §1

Row | Test System | level (log10) ([1]; 6700 nM) | level (log10) ([1]; 20000 nM) | level (log10) ([2]; 6700 nM) | level (log10) ([2]; 20000 nM) | level (log10) ([2]; 60000 nM) | level (log10) ([3]; 6700 nM) | level (log10) ([3]; 20000 nM) | level (log10) ([3]; 60000 nM) | level (log10) ([4]; 6700 nM) | level (log10) ([4]; 20000 nM) | level (log10) ([4]; 60000 nM) | level (log10) ([5]; 6700 nM) | level (log10) ([5]; 20000 nM) | level (log10) ([5]; 60000 nM) | level (log10) ([6]; 6700 nM) | level (log10) ([6]; 20000 nM) | level (log10) ([7]; 6700 nM) | level (log10) ([7]; 20000 nM) | level (log10) ([7]; 60000 nM)
1 | SAg:PBMC Cytotoxicity | 0.032 ± 0.0028 | 0.0625 ± 0.061 | -0.0205 ± 0.015 | 0.002 ± 0.0042 | 0.017 ± 0.033 | 0.0005 ± 0.052 | 0.026 ± 0.0042 | 0.0245 ± 0.012 | -0.001 ± 0.013 | -0.0055 ± 0.0092 | 0.009 ± 0.044 | -0.025 ± 0.0042 | -0.0175 ± 0.026 | 0.0085 ± 0.012 | -0.025 ± 0.023 | -0.0015 ± 0.0035 | 0.0255 ± 0.0021 | 0.0095 ± 0.019 | 0.0195 ± 0.026
2 | LPS:CCL2/MCP-1 | -0.0005 ± 0.012 | -0.0015 ± 0.0064 | -0.0195 ± 0.0021 | -0.007 ± 0.0042 | 0.017 ± 0.054 | -0.0035 ± 0.011 | -0.017 ± 0.0028 | 0.008 ± 0.04 | -0.011 ± 0.014 | -0.008 ± 0.031 | 0.019 ± 0.068 | 0.0045 ± 0.0064 | 0.0045 ± 0.0064 | 0.028 ± 0.024 | 0.018 | 0.026 ± 0.013 | -0.0025 ± 0.021 | -0.005 ± 0.0028 | 0.032 ± 0.011
3 | BF4T:Keratin 8/18 | 0.011 ± 0.0028 | -0.335 ± 0.042 | -0.027 ± 0.027 | -0.0025 ± 0.013 | 0.0035 ± 0.021 | 0.0075 ± 0.043 | 0.0395 ± 0.05 | 0.0075 ± 0.032 | -0.032 ± 0.0028 | -0.004 ± 0.0014 | 0.027 ± 0.016 | 0.007 ± 0.011 | 0.0075 ± 0.0064 | 0.026 ± 0.02 | -0.0415 ± 0.0064 | -0.0615 ± 0.03 | -0.0285 ± 0.0092 | -0.018 ± 0.0057 | 0.0045 ± 0.026
4 | SAg:CD40 | -0.0095 ± 0.021 | -0.0305 ± 0.012 | 0 ± 0.0028 | -0.056 ± 0.045 | -0.028 ± 0.044 | -0.041 ± 0.0071 | -0.0195 ± 0.015 | -0.0445 ± 0.0021 | -0.045 ± 0.016 | -0.0335 ± 0.044 | -0.009 ± 0.031 | 0.001 ± 0.0071 | -0.012 ± 0.0099 | -0.029 ± 0.011 | 0.0105 ± 0.011 | 0.006 ± 0.011 | -0.015 ± 0.027 | -0.006 ± 0.0028 | -0.021 ± 0.018
5 | BF4T:IL-1alpha | -0.0335 ± 0.0035 | -0.247 ± 0.28 | -0.02 ± 0.0014 | -0.019 ± 0.014 | 0.0085 ± 0.012 | -0.0165 ± 0.0021 | -0.016 ± 0.021 | 0.0065 ± 0.021 | -0.0325 ± 0.005 | 0.002 | 0.013 ± 0.03 | -0.0055 ± 0.005 | -0.025 ± 0.0042 | 0.0095 ± 0.00071 | -0.036 ± 0.018 | -0.023 ± 0.017 | -0.0085 ± 0.023 | -0.0015 ± 0.005 | 0.013 ± 0.0099
6 | SAg:CD62E/E-Selectin | 0.0005 ± 0.015 | 0.0165 ± 0.023 | -0.0205 ± 0.018 | -0.002 ± 0.0014 | 0.0175 ± 0.0078 | -0.0215 ± 0.005 | -0.0095 ± 0.026 | -0.0115 ± 0.018 | 0.004 ± 0.013 | -0.0205 ± 0.016 | 0.0425 ± 0.023 | -0.0115 ± 0.00071 | -0.008 ± 0.02 | 0.0405 ± 0.0064 | -0.0115 ± 0.0064 | -0.0015 ± 0.022 | -0.025 ± 0.0085 | 0.011 | 0.008 ± 0.013
7 | 4H:VEGFR2 | -0.007 ± 0.017 | -0.01 ± 0.02 | -0.0255 ± 0.015 | -0.005 ± 0.042 | 0.012 ± 0.05 | 0.032 ± 0.014 | 0.034 ± 0.027 | 0.072 ± 0.031 | -0.0375 ± 0.026 | -0.011 ± 0.04 | 0.049 ± 0.042 | -0.021 ± 0.037 | -0.0125 ± 0.052 | 0.03 ± 0.038 | -0.0145 ± 0.026 | 0.0405 ± 0.074 | 0.016 ± 0.027 | 0.022 ± 0.013 | 0.012 ± 0.054
8 | BF4T:PAI-I | 0.0185 ± 0.00071 | -0.119 ± 0.043 | 0.0025 ± 0.013 | -0.01 ± 0.0042 | 0.0105 ± 0.035 | -0.0005 ± 0.0035 | -0.005 ± 0.016 | 0.0015 ± 0.011 | -0.004 ± 0.023 | 0.01 ± 0.013 | 0.029 ± 0.044 | 0.0005 ± 0.03 | -0.015 ± 0.017 | -0.018 ± 0.0028 | -0.0175 ± 0.0064 | -0.0255 ± 0.005 | -0.0045 ± 0.019 | 0.0005 ± 0.025 | 0.0015 ± 0.028
9 | LPS:sTNF-alpha | -0.0245 ± 0.011 | -0.02 ± 0.017 | 0.0095 ± 0.043 | 0.0095 ± 0.023 | 0.004 ± 0.031 | 0.05 ± 0.0014 | 0.0015 ± 0.023 | 0.0095 ± 0.04 | -0.006 ± 0.013 | 0.0065 ± 0.00071 | 0.0175 ± 0.0021 | -0.007 ± 0.025 | -0.0195 ± 0.015 | -0.0695 ± 0.0092 | 0.052 ± 0.013 | 0.098 ± 0.0071 | -0.0265 ± 0.054 | -0.049 ± 0.0071 | -0.0215 ± 0.046
10 | SAg:CD69 | -0.0335 ± 0.015 | -0.062 ± 0.0057 | -0.0145 ± 0.015 | -0.0165 ± 0.015 | 0.005 ± 0.027 | -0.026 ± 0.013 | -0.0385 ± 0.018 | -0.026 ± 0.0071 | -0.0175 ± 0.005 | -0.019 ± 0.0042 | -0.008 ± 0.023 | -0.0235 ± 0.00071 | -0.0175 ± 0.012 | -0.06 ± 0.0014 | -0.0165 ± 0.0092 | -0.035 ± 0.0014 | -0.006 ± 0.0014 | -0.0145 ± 0.0021 | -0.008 ± 0.017
11 | BF4T:CCL26/Eotaxin-3 | -0.083 ± 0.038 | -0.509 ± 0.029 | -0.035 ± 0.011 | 0.0085 ± 0.0035 | -0.0115 ± 0.063 | -0.009 ± 0.017 | -0.0155 ± 0.023 | -0.0135 ± 0.011 | -0.004 ± 0.031 | -0.0105 ± 0.04 | 0.03 ± 0.044 | 0.003 ± 0.0099 | -0.001 ± 0.02 | -0.0165 ± 0.037 | -0.0585 ± 0.04 | -0.037 ± 0.0099 | 0.0145 ± 0.019 | -0.0055 ± 0.013 | -0.031 ± 0.081
12 | SAg:Proliferation | 0.0435 ± 0.019 | 0.0255 ± 0.032 | -0.0545 ± 0.026 | -0.0325 ± 0.025 | -0.0145 ± 0.03 | 0.0045 ± 0.016 | 0.0135 ± 0.022 | 0.045 ± 0.0028 | -0.0205 ± 0.043 | -0.0085 ± 0.019 | -0.0025 ± 0.07 | -0.0215 ± 0.016 | 0.0015 ± 0.0064 | 0.021 ± 0.024 | 0.056 ± 0.016 | 0.0225 ± 0.03 | 0.0045 ± 0.032 | 0.0275 ± 0.035 | 0.028 ± 0.034
13 | BE3C:EGFR | -0.0135 ± 0.05 | -0.149 ± 0.073 | -0.0135 ± 0.011 | -0.0085 ± 0.0064 | 0.032 ± 0.025 | -0.019 ± 0.016 | -0.0095 ± 0.015 | -0.0235 ± 0.04 | -0.0175 ± 0.036 | 0.0065 ± 0.012 | 0.035 ± 0.035 | -0.005 | -0.0085 ± 0.0078 | 0.001 ± 0.0028 | 0.025 ± 0.013 | 0.0035 ± 0.03 | -0.0065 ± 0.0078 | 0.0045 ± 0.0021 | -0.0005 ± 0.033
